Source: patent US20240294489A1 (Captor Therapeutics S.A., priority 2020, published 2024)
Counter-ions that a name gives are not always drawn.

How the values were obtained:
Assay type in all cases: cell-based
H929 cells = assay: Cell viability CTG assay, H929; design: key to Geomean absolute IC50 by molecule, 72 H: Inactive represents IC50 > 50 μM; C represents 50 μM ≥ IC50 > 5 μM; settings: H929, 72 h, 0.001-50 μM; for IC50: Homo sapiens, NCI-H929, numeric values, read-out: Geomean absolute IC50 by molecule, 72 H
Protocol: (§1) The effect of various compounds of the invention and various reference compounds on cell viability in various cell lines was investigated, using the Cell Viability—CTG Assay Protocol below. Hep3B, Kelly, H929, KG-1 and SNU-398 cells were maintained in respective cell medium (see Table 8, below). The cells were seeded on the 96-well or 384-white plates, and the compounds to be tested were added at the desired concentration range. Compounds are diluted in DMSO, and the DMSO concentration is kept constant at 0.25% v/v across the assay plate. After 72 h incubation (37° C., 5% CO2), CellTiter-Glo® Reagent (Promega/G7570) was added to the wells. Plates are shaken for 4 minutes and incubated for 8 minutes in the dark prior to reading luminescence (LU) by using the CLARIOstar Multimode Plate Reader. The signal is proportional to the amount of ATP, which is directly proportional to the number of cells present in the culture.
(§2) Luminescence (RLU) values were normalized to DMSO control. Dose response is assessed by non-linear regression and IC50 calculation with the average of technical duplicate of percentage inhibition. IC50 values are reported as absolute IC50 values, being the concentration of test compound at the intersection of the concentration-response curves with T/C=50%. For calculation of mean IC50 values the geometric mean is used.

Ikaros (IKZF1) = target: T1, Ikaros (IKZF1) (Homo sapiens, UniProt Q13422+Q96SW2); assay: Ikaros degradation assay, H929 cell line; settings: H929 cells, 24 h; for % of IKZF1 protein reduction: numeric values; for inhibition at 10 µM / inhibition at 20 µM: NCI-H929, read-out: % of IKZF1 protein reduction
T1 construct: Ikaros degradation in the H929 cell line was investigated; endogenous in cells; host or cells: H929
T1 sequence (Q13422 whole entry): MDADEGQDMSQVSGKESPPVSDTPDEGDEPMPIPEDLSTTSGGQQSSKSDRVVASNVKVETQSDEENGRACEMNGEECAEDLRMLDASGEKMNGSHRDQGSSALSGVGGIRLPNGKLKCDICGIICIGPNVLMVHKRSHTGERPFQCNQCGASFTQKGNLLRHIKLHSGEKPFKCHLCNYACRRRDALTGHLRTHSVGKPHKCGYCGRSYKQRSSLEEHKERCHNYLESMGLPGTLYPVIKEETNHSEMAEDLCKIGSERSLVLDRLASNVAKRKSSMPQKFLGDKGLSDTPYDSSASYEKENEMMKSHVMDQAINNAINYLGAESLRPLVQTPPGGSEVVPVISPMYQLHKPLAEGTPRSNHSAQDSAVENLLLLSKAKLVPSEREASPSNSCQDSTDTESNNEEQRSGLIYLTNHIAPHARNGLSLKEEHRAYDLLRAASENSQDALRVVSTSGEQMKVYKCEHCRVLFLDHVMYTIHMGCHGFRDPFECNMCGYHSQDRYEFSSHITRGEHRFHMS
T1 sequence (Q96SW2 whole entry): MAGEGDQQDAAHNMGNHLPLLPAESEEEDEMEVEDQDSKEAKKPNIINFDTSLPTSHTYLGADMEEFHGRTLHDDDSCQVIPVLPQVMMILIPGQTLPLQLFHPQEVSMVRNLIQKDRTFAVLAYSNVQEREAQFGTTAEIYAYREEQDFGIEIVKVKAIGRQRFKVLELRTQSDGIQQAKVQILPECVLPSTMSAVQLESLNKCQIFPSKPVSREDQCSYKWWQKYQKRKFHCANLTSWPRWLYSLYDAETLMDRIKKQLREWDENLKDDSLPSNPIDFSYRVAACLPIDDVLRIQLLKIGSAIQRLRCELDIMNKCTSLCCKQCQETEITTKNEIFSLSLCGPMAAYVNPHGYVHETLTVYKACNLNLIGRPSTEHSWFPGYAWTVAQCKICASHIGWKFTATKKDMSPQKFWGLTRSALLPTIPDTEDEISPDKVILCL
T1 sequence (Q16531 whole entry partner): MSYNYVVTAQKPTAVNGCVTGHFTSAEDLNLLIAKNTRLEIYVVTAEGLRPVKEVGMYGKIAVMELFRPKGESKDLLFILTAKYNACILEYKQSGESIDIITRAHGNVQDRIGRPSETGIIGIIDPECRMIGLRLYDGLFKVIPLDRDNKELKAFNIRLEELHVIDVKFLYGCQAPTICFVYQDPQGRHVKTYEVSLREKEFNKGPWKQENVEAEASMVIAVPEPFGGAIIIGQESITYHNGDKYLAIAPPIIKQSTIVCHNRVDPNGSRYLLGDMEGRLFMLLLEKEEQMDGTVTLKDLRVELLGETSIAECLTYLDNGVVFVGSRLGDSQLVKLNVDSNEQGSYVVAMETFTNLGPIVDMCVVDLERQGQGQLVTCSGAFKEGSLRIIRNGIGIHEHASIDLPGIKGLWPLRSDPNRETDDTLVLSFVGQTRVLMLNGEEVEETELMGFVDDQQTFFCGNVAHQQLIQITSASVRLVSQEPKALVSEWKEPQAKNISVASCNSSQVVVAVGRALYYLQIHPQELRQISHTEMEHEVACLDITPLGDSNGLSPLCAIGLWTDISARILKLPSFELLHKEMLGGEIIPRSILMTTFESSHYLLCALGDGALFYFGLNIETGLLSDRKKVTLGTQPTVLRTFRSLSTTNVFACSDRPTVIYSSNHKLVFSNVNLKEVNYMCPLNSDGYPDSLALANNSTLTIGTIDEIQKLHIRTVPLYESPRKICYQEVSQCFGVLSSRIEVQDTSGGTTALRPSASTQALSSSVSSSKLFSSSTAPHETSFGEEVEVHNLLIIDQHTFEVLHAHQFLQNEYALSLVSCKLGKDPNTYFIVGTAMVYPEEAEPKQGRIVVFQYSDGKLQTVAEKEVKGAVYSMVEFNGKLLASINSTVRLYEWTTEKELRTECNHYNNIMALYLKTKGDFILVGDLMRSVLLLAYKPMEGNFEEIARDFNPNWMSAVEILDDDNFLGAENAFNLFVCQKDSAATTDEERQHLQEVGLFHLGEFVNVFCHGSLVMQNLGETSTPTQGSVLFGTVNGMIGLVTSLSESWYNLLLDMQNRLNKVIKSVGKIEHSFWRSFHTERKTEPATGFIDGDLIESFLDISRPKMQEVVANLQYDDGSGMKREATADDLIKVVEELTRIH
Protocol: Cells were seeded on 6- or 12-well plates, and the compounds to be tested were added at the desired concentration range. […] After 24 h incubation (37° C., 5% CO2), cells were harvested, washed and cell lysates were prepared using RIPA lysis buffer. The amount of protein was determined via BCA assay, and the appropriate quantity was then loaded on the precast gel for the protein separation. After primary and secondary Ab staining, the membranes were washed and signals developed. The densitometry analysis was implemented to obtain the numeric values used later in the protein level evaluation process.

Hep3B cells = assay: Cell viability CTG assay, Hep3B; settings: Homo sapiens, 72 h, 0.001-50 μM, read-out: Hep3B Geomean absolute IC50 by molecule, 72 H
Protocol: as §1, §2

GSPT1 = target: T2, GSPT1 (Homo sapiens, UniProt P15170+Q96SW2); assay: GSPT1 degradation assay, Hep3B cell line; settings: HEP3B cells, 24 h, read-out: % of GSPT1 protein reduction
T2 construct: GSPT1 degradation in the Hep3B cell line was investigated; endogenous in cells; host or cells: Hep3B
T2 sequence (P15170 whole entry): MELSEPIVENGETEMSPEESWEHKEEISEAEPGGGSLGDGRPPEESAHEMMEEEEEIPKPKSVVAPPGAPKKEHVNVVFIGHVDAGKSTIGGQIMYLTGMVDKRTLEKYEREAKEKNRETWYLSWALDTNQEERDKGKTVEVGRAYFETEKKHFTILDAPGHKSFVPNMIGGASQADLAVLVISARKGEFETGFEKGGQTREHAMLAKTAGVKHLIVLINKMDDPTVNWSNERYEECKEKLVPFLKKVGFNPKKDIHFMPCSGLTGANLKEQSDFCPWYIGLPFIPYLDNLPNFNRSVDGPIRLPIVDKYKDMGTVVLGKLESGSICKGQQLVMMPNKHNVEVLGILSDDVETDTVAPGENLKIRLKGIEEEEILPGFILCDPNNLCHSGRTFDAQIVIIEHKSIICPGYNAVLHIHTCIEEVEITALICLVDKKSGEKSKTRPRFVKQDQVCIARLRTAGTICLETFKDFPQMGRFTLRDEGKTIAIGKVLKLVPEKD
T2 sequence (Q96SW2 whole entry): as the sequence (Q96SW2 whole entry) above
T2 sequence (Q16531 whole entry partner): as the sequence (Q16531 whole entry partner) above
Protocol: Hep3B cells were maintained in EMEM medium, supplemented with penicillin/streptomycin and 10% Fetal Bovine Serum (FBS). Cells were seeded on 6- or 12-well plates, and the compounds to be tested were added at the desired concentration range. Final DMSO concentration was 0.25%. After 24 h incubation (37° C., 5% CO2), cells were harvested, washed and cell lysates were prepared using RIPA lysis buffer. The amount of protein was determined via BCA assay, and the appropriate quantity was then loaded on the precast gel for the protein separation. After primary and secondary Ab staining, the membranes were washed and signals developed. The densitometry analysis was implemented to obtain the numeric values used later in the protein level evaluation process. Densitometry values were normalized to the loading control and calculated as [%] of the DMSO control.

Kelly cells = assay: Cell viability CTG assay, Kelly; settings: 72 h, 0.001-50 μM, read-out: Kelly Geomean absolute IC50 by molecule, 72 H
Protocol: as §1, §2

KG-1 cells = assay: Cell viability CTG assay, KG-1; settings: Homo sapiens; KG-1, 72 h, 0.001-50 μM; read-out: KG-1 Geomean absolute IC50 by molecule, 72 H
Protocol: as §1, §2

With `Cc1nc2cccc(N)c2c(=O)n1C1CCC(=O)NC1=O` (stereo not drawn) [CC-122, reference compound] the IC50 (H929 cells) was 72 nM.
In the case of `O=C1CC[C@@H](N2Cc3c(OCc4ccc(CN5CCOCC5)cc4)cccc3C2=O)C(=O)N1` [CC-220, reference compound], the IC50 (H929 cells) is reported as 4 nM.
`Cc1ccc(NC(=O)NCc2ccc3c(c2)CN(C2CCC(=O)NC2=O)C3=O)cc1Cl` (stereo not drawn) [CC-885, reference compound] was tested, and the “% of IKZF1 protein reduction” value (Ikaros (IKZF1); 10 uM) was greater than 99% and the “% of IKZF1 protein reduction” value (Ikaros (IKZF1); 20 uM) was greater than 99%.
With `Cc1cc2c(cc1CN)CN(C1CCC(=O)NC1=O)C2=O` (stereo not drawn) [Compound 4, 3-[5-(aminomethyl)-6-methyl-1-oxo-2,3-dihydro-1H-isoindol-2-yl]piperidine-2,6-dione] the inhibition at 10 µM (Ikaros (IKZF1); 10 uM) was 0 to 24%.
In the case of `NCc1ccc2c(c1F)CN(C1CCC(=O)NC1=O)C2=O` (stereo not drawn) [Compound 5, 3-[5-(aminomethyl)-4-fluoro-1-oxo-2,3-dihydro-1H-isoindol-2-yl]piperidine-2,6-dione], the IC50 (Hep3B cells) is reported as 100 to 1000 nM, the inhibition at 10 µM (Ikaros (IKZF1); 10 uM) is reported as 0 to 24% and the “Geomean absolute IC50 by molecule, 72 H” value (H929 cells) is reported as “Inactive”. It also gave an inhibition at 10 µM (GSPT1) of 80 to 100%.
`Cc1c(CN)ccc2c1CN(C1CCC(=O)NC1=O)C2=O` (stereo not drawn) [Compound 6, 3-[5-(aminomethyl)-4-methyl-1-oxo-2,3-dihydro-1H-isoindol-2-yl]piperidine-2,6-dione] was tested, and the IC50 (Hep3B cells) was no more than 100 nM and the “Geomean absolute IC50 by molecule, 72 H” value (H929 cells) was “Inactive”.
For `NCc1cc(F)c2c(c1)CN(C1CCC(=O)NC1=O)C2=O` (stereo not drawn) [Compound 7, 3-[5-(aminomethyl)-7-fluoro-1-oxo-2,3-dihydro-1H-isoindol-2-yl]piperidine-2,6-dione], the inhibition at 10 µM (Ikaros (IKZF1); 10 uM) was 0 to 24% and the inhibition at 10 µM (GSPT1) was 50 to 79%.
`C[C@H](N)c1ccc2c(c1)CN(C1CCC(=O)NC1=O)C2=O` (stereo partly drawn) [Compound 8, 3-{5-[(1S)-1-aminoethyl]-1-oxo-2,3-dihydro-1H-isoindol-2-yl}piperidine-2,6-dione] was tested, and the inhibition at 20 µM (Ikaros (IKZF1); 20 uM) was 0 to 24%.
`C[C@H](NC(=O)OC(C)(C)C)c1ccc2c(c1)CN(C1CCC(=O)NC1=O)C2=O` (stereo partly drawn) [Compound 9, tert-butyl N-[(1S)-1-[2-(2,6-dioxopiperidin-3-yl)-1-oxo-2,3-dihydro-1H-isoindol-5-yl]ethyl]carbamate] gave an inhibition at 20 µM (Ikaros (IKZF1); 20 uM) of 0 to 24%.
For `C[C@@H](N)c1ccc2c(c1)CN(C1CCC(=O)NC1=O)C2=O` (stereo partly drawn) [Compound 10, 3-{5-[(1R)-1-aminoethyl]-1-oxo-2,3-dihydro-1H-isoindol-2-yl}piperidine-2,6-dione], the inhibition at 10 µM (Ikaros (IKZF1); 10 uM) was 0 to 24%.
`C[C@@H](NC(=O)OC(C)(C)C)c1ccc2c(c1)CN(C1CCC(=O)NC1=O)C2=O` (stereo partly drawn) [Compound 11, tert-butyl N-[(1R)-1-[2-(2,6-dioxopiperidin-3-yl)-1-oxo-2,3-dihydro-1H-isoindol-5-yl]ethyl]carbamate] gave an inhibition at 20 µM (Ikaros (IKZF1); 20 uM) of 0 to 24%.
`CN(C)Cc1ccc2c(c1)CN(C1CCC(=O)NC1=O)C2=O` (stereo not drawn) [Compound 16, 3-(5-((dimethylamino)methyl)-1-oxoisoindolin-2-yl)piperidine-2,6-dione] was tested, and the inhibition at 10 µM (Ikaros (IKZF1); 10 uM) was 0 to 24%.
For `O=C1CCC(N2Cc3cc(CO)ccc3C2=O)C(=O)N1` (stereo not drawn) [Compound 17, 3-(5-(hydroxymethyl)-1-oxoisoindolin-2-yl)piperidine-2,6-dione], the inhibition at 10 µM (Ikaros (IKZF1); 10 uM) was 0 to 24%.
In the case of `CC(=O)OCc1ccccc1C(=O)NCc1ccc2c(c1)CN(C1CCC(=O)NC1=O)C2=O` (stereo not drawn) [Compound 19, [2-({[2-(2,6-dioxopiperidin-3-yl)-1-oxo-2,3-dihydro-1H-isoindol-5-yl]methyl}carbamoyl)phenyl]methyl acetate], the inhibition at 10 µM (GSPT1) is reported as 50 to 79%.
Work on `O=C1CCC(N2Cc3cc(CNC(=O)c4ccccc4CO)ccc3C2=O)C(=O)N1` (stereo not drawn) [Compound 20, N-{[2-(2,6-dioxopiperidin-3-yl)-1-oxo-2,3-dihydro-1H-isoindol-5-yl]methyl}-2-(hydroxymethyl)benzamide] yielded an inhibition at 10 µM (GSPT1) of 50 to 79%.
With `CC(C)(C)OC(=O)NCC(=O)NCc1ccc2c(c1)CN(C1CCC(=O)NC1=O)C2=O` (stereo not drawn) [Compound 26, tert-butyl (2-(((2-(2,6-dioxopiperidin-3-yl)-1-oxoisoindolin-5-yl)methyl)amino)-2-oxoethyl)carbamate] the IC50 (Hep3B cells) was no more than 100 nM, the inhibition at 20 µM (Ikaros (IKZF1); 20 uM) was 0 to 24% and the “Geomean absolute IC50 by molecule, 72 H” value (H929 cells) was “Inactive”.
`CC(C)(C)OC(=O)N[C@@H](Cc1cnc[nH]1)C(=O)NCc1ccc2c(c1)CN([C@H]1CCC(=O)NC1=O)C2=O` [Compound 30, tert-butyl ((S)-1-(((2-((S)-2,6-dioxopiperidin-3-yl)-1-oxoisoindolin-5-yl)methyl)amino)-3-(1H-imidazol-4-yl)-1-oxopropan-2-yl)carbamate] gave an inhibition at 20 µM (Ikaros (IKZF1); 20 uM) of 0 to 24%.
`CC(C)C(N)C(=O)NCc1ccc2c(c1)CN(C1CCC(=O)NC1=O)C2=O` (stereo not drawn) [Compound 32, 2-amino-N-((2-(2,6-dioxopiperidin-3-yl)-1-oxoisoindolin-5-yl)methyl)-3-methylbutanamide] gave an inhibition at 20 µM (Ikaros (IKZF1); 20 uM) of 0 to 24%.
`CC(C)(C)OC(=O)NC(C)(C)C(=O)NCc1ccc2c(c1)CN(C1CCC(=O)NC1=O)C2=O` (stereo not drawn) [Compound 33, tert-butyl (1-(((2-(2,6-dioxopiperidin-3-yl)-1-oxoisoindolin-5-yl)methyl)amino)-2-methyl-1-oxopropan-2-yl)carbamate] showed an inhibition at 20 µM (Ikaros (IKZF1); 20 uM) of 0 to 24%.
`CC(C)(N)C(=O)NCc1ccc2c(c1)CN(C1CCC(=O)NC1=O)C2=O` (stereo not drawn) [Compound 34, 2-amino-N-((2-(2,6-dioxopiperidin-3-yl)-1-oxoisoindolin-5-yl)methyl)-2-methylpropanamide] gave an inhibition at 20 µM (Ikaros (IKZF1); 20 uM) of 0 to 24%.
`O=C(CCc1c[nH]c2ccccc12)NCc1ccc2c(c1)CN(C1CCC(=O)NC1=O)C2=O` (stereo not drawn) [Compound 36] was tested, and the IC50 (Kelly cells) was no more than 100 nM, the IC50 (KG-1 cells) was no more than 100 nM and the IC50 (Hep3B cells) was no more than 100 nM.
For `N=C(N)NCCCC(N)C(=O)NCc1ccc2c(c1)CN(C1CCC(=O)NC1=O)C2=O` (stereo not drawn) [Compound 38, 2-amino-N-((2-(2,6-dioxopiperidin-3-yl)-1-oxoisoindolin-5-yl)methyl)-5-guanidinopentanamide], the IC50 (Hep3B cells) was 100 to 1000 nM and the “Geomean absolute IC50 by molecule, 72 H” value (H929 cells) was “Inactive”.
Work on `O=C(CCc1ccc(Cl)cc1)NCc1ccc2c(c1)CN(C1CCC(=O)NC1=O)C2=O` (stereo not drawn) [Compound 42] yielded an IC50 (Kelly cells) of no more than 100 nM, an IC50 (KG-1 cells) of no more than 100 nM and an IC50 (Hep3B cells) of no more than 100 nM.
Work on `O=C1CCC(N2Cc3cc(CNC(=O)[C@@H]4CCCN4)ccc3C2=O)C(=O)N1` (stereo partly drawn) [Compound 43, (2S)—N-((2-(2,6-dioxopiperidin-3-yl)-1-oxoisoindolin-5-yl)methyl)pyrrolidine-2-carboxamide hydrochloride] yielded an IC50 (KG-1 cells) of 1000 to 5000 nM, an IC50 (Hep3B cells) of 100 to 1000 nM and an inhibition at 20 µM (Ikaros (IKZF1); 20 uM) of 0 to 24%. The “Geomean absolute IC50 by molecule, 72 H” value (H929 cells) was “Inactive”.
`CC1c2cc(CN)ccc2C(=O)N1C1CCC(=O)NC1=O` (stereo not drawn) [Compound 52, 3-[5-(aminomethyl)-3-methyl-1-oxo-2,3-dihydro-1H-isoindol-2-yl]piperidine-2,6-dione] was tested, and the IC50 (Hep3B cells) was no more than 100 nM, the inhibition at 10 µM (Ikaros (IKZF1); 10 uM) was 0 to 24% and the “Geomean absolute IC50 by molecule, 72 H” value (H929 cells) was “Inactive”. The inhibition at 10 µM (GSPT1) was 80 to 100%.
For `O=C1CCC(N2Cc3cc(C(=O)O)ccc3C2=O)C(=O)N1` (stereo not drawn) [Compound 53], the inhibition at 1 µM (GSPT1; 1 uM) was 50 to 79% and the inhibition at 10 µM (GSPT1) was 80 to 100%.
`O=C1CCC(N2Cc3cc(C(=O)O)c(F)cc3C2=O)C(=O)N1` (stereo not drawn) [Compound 54, 2-(2,6-dioxopiperidin-3-yl)-6-fluoro-1-oxo-2,3-dihydro-1H-isoindole-5-carboxylic acid] was tested, and the inhibition at 10 µM (Ikaros (IKZF1); 10 uM) was 0 to 24% and the inhibition at 10 µM (GSPT1) was 80 to 100%.
